Data set [1] relates to previously treated squamous-cell lung cancer. As to conditions: cited from earlier work; for Median survival time (MST): CheckMate-017, primary outcome; for Disease progression rate / Response rate: CheckMate-017.
For data set [2], the system named is previously treated non-small-cell lung cancer. The conditions noted are these: cited from earlier work; for MST: POPLAR.
For data set [3], the system named is previously treated non-squamous non-small-cell lung cancer. The conditions noted are these: cited from earlier work; for Median survival time (MST): CheckMate-057, primary outcome; for Disease progression rate / Response rate: CheckMate-057.
The test system of data set [4] is previously treated non-small-cell lung cancer. The conditions noted are these: cited from earlier work.
Data set [5] is described as follows: Repeated administration toxicity trial for 10 weeks into the dorsal skin. The conditions noted are these: both sexes, Sprague-Dawley (Crl:CD(SD)), rat, in vivo; both males and females, 10 weeks repeated administration; read-out: No-observed-adverse-effect level. On the procedure: A toxicity trial was performed in which a mixture of SLP1 and SLP2 was repeatedly administered for 10 weeks (intermittently administered five times every 14 days) with an adjuvant into the dorsal skin of Sprague-Dawley rats (Crl:CD(SD), 6-week-old at the start of administration, a group of 10 males and 10 females).
The following two doses were adopted as the doses of the test substances: 0.2 mg/kg (SLP1: 0.2 mg/kg+SLP2: 0.2 mg/kg) and 2 mg/kg (SLP1: 2 mg/kg+SLP2: 2 mg/kg). SLP1 and SLP2 dissolved in water for injection and Picibanil were mixed with an equal amount of an oil adjuvant MONTANIDE ISA 51 VG (ISA51) to provide an emulsion, which was administered into the dorsal skin in an administration volume of 1 mL/kg. Further, a vehicle control group to be administered an emulsion of water for injection and Picibanil with ISA51 and a physiological saline control group to be administered physiological saline were formed.
During the administration period, general condition observation, body weight measurement, and food intake measurement were performed, and urine examination and ophthalmologic examination were performed in week 10 of the administration. At the end of the administration period, hematological examination, blood chemical examination, an autopsy, organ weight measurement, and histopathological examination were performed.

Where [6] appears, read: KEYNOTE-010, tumor PD-L1 expression of 1% or more.
Setting [7] is: KEYNOTE-010, tumor PD-L1 expression of 50% or more.

The text below walks through data of patent US11709165B2, “Examination method for prediction of effect of treatment of cancer based on detection of cancer/testis antibodies” (KAWASAKI GAKUEN EDUCATIONAL FOUNDATION, priority 2017, dated 2023).

Like-named read-outs stand apart in the source and are kept apart here. Where no end group is shown, it is not given here. Where only a bound is given, the exact number is not on record here.

With `CC(=O)O[C@@]12CO[C@@H]1C[C@H](O)[C@@]1(C)C(=O)[C@H](O)C3=C(C)[C@@H](OC(=O)[C@H](O)[C@@H](NC(=O)OC(C)(C)C)c4ccccc4)C[C@@](O)([C@@H](OC(=O)c4ccccc4)[C@H]21)C3(C)C` [docetaxel], the “Median survival time (MST)” value in data set [1] is reported as 6.0 months; in data set [3] it was 9.4 months. Moreover, the Disease progression rate in data set [1] is 30%; in data set [3], 29%. The Response rate is reported as 31% in data set [1]; “about 15%” in data set [2] (group expressing no PD-L1 in the cancer immune microenvironment); 12% in data set [3]; 9.3% in data set [4] (setting [6]); 7.9% in data set [4] (setting [7]). In addition, the MST in data set [2] is 9.7 months; in data set [4] (setting [6]) it was 8.5 months.

As for ISQTPGINLDLGSGVKVKIIPKEEH [SLP2], in data set [5], the NOAEL at 1680 h is above 2 mg/kg.

For the molecule NQQLKVGILHLGSRQKKIRIQLRSQ [SLP1], in data set [5], the NOAEL at 1680 h is above 2 mg/kg.

In the case of atezolizumab, the MST in data set [2] is recorded as 12.6 months. The Response rate in data set [2] (group highly expressing PD-L1 in the cancer immune microenvironment) is reported as 38%.

Consider nivolumab, for which, in data set [1], the “Median survival time (MST)” value is on record as 9.2 months, the Disease progression rate is listed as 33% and the Response rate is 36%. Moreover, in data set [3], the “Median survival time (MST)” value is recorded as 12.2 months, the Disease progression rate is on record as 44% and the Response rate is on record as 19%.

For the molecule pembrolizumab, the “Progression-free survival (PFS) as compared to docetaxel group” value in data set [4] (setting [6]) is “No significant difference”. Also, the “PFS as compared to docetaxel group” value in data set [4] (setting [7]) is on record as “significantly improved”.
